These results are taken from patent US8188097B2, “Pyrazolo[1,5-A]pyrimidine compounds” (Mitsubishi Tanabe Pharma Corporation, priority 2005, dated 2012).

The target in the assay is T1, Human CB1 receptor (Homo sapiens, UniProt P21554).
T1 construct: host or cells: CHO cells (hCB1/CHO#C3), membrane fraction prepared in house
The experiment in a line: Human CB1 receptor binding assay ([3H]-CP55940 displacement, hCB1/CHO membrane fraction). Conditions: human CB1 receptor membrane preparation, 30° C. for 90 minutes. As for the experimental part: Human Cb1 Receptor Binding Assay
(1) Preparation of Human Cb1 Receptor (Membrane Fraction):
Human CB1-expressing cell line: hCB1/CHO#C3 (Euroscreen)
Buffer A: 50 mM tris-HCl (pH 7.5) containing ethylenediaminetetraacetic acid (2.5 mM), MgCl2 (5 mM) and sucrose (200 mM)
The receptor-expressing cells cultivated in the above medium were washed with phosphate buffer (×2) and thereto was added Buffer A (2 mL) under ice-cooling or 4° C. (the following procedures were also carried out at the same temperature). The cells were collected by using a cell-scraper, treated by a microtip-type ultrasonicator for 20 seconds (pulse-on: 2 sec, pulse-off: 1 sec) and centrifuged (500×g, 15 min). The supernatant was separated and centrifuged (43000×g, 60 min). The resultant pellet was suspended in Buffer A and homogenized with a potter-type homogenizer. To the homogenate was added an equal volume of 80% glycerol and stored at −80° C.
(2) Procedure of Cb1 Receptor Binding Assay:
Buffer B: 50 mM tris-HCl (pH 7.5) containing ethylenediaminetetraacetic acid (2.5 mM), MgCl2 (5 mM) and bovine serum albumine (2 mg/mL, fatty acid-free, SIGMA-A7030)
Buffer C: 50 mM tris-HCl (pH 7.5) containing ethylenediaminetetraacetic acid (2.5 mM), MgCl2 (5 mM) and bovine serum albumine (2 mg/mL, SIGMA-A7906)
Coating solution: 0.3% ethyleneimine polymer
Radioligand: [^3H]-CP55940 (30 nM/7992 dpm/mL) prepared by diluting 8.3 μM solution of the radioligand with Buffer B
Each well of the assay plate (96-well, Costar Code#3371) was filled with Buffer B (140 μL), a solution of each test compound in dimethylsulfoxide (20 μL, final concentration: […]), radioligand (20 μL) and membrane preparation (20 μL, 0.5 μg/20 μL) and the mixture was incubated at 30° C. for 90 minutes to proceed the binding reaction. The reaction mixture was harvested to each well of a plate presoaked with the above coating solution (Packard Unifilter GF/B, #6005177). The plate was washed with Buffer C (200 μL×10) and dried at 50° C. for 1 hour and Microscinti 40 (40 μL) was added to each well. The bound radiolabel was quantitated by scintillation counting (Top Count NXT, Packard). IC50 value of each test compound against the radioligand-binding to CB1 receptors was calculated on the basis of the quantitated radiolabel activity by using Graphpad Prism 3.02.

T1 sequence (P21554 whole entry): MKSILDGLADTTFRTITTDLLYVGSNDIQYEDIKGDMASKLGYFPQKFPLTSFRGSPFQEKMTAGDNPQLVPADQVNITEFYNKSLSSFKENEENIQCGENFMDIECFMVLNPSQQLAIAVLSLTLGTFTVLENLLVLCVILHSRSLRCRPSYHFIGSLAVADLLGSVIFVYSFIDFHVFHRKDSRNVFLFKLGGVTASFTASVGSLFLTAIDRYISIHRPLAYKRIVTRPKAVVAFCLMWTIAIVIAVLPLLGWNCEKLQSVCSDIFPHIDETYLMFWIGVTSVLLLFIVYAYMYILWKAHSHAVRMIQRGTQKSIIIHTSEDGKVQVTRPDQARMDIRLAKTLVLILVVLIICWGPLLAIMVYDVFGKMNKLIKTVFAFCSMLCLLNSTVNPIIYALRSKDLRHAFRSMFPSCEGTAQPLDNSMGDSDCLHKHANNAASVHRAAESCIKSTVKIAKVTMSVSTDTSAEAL

As for `CN(NC(=O)c1c(N(C)S(C)(=O)=O)nn2c(-c3ccc(Cl)cc3)c(-c3ccccc3Cl)cnc12)c1ccccn1` [Example 452], the “IC50 (nM)” value is on record as “+ + +”.

As to `Cc1nn2c(-c3ccc(Cl)cc3)c(-c3ccccc3Cl)cnc2c1C(=O)CN1CCS(=O)(=O)CC1` [Example 462], the “IC50 (nM)” value is recorded as “+ +”.

In the case of `CN(NC(=O)c1cnn2c(-c3ccc(Cl)cc3)c(-c3ccccc3C#N)cnc12)c1cccc(Cl)c1` [Example 253], the “IC50 (nM)” value was “+ + +”.

For `Cc1nn2c(-c3ccc(Cl)s3)c(-c3ccccc3Cl)cnc2c1C(=O)NN(C)c1ccccn1` [Example 410], the “IC50 (nM)” value is “+ +”.

In the case of `CC(=O)Nc1nn2c(-c3ccc(Cl)cc3)c(-c3ccccc3Cl)cnc2c1C(=O)NC1CCS(=O)(=O)C1` (stereo not shown) [Example 224], the “IC50 (nM)” value is listed as “+ +”.

`O=C(NC1CSC1)c1cnn2c(-c3ccc(Cl)cc3)c(-c3ccccc3Cl)cnc12` [Example 324]: the “IC50 (nM)” value is “+ +”.

As for `N#Cc1ccccc1-c1cnc2c(C(=O)NN3CCCCCC3)cnn2c1-c1ccc(Cl)cc1` [Example 252], the “IC50 (nM)” value is “+ +”.

On to `Cc1nn2c(-c3ccc(Cl)cc3)c(-c3ccccc3Cl)cnc2c1C(=O)N[C@H]1CCS(=O)(=O)C1` [Example 185], for which the “IC50 (nM)” value is reported as “+ +”.

Take `CN(NC(=O)c1c(C(F)(F)F)nn2c(-c3ccc(Cl)cc3)c(-c3ccccc3Cl)cnc12)c1ccccn1` [Example 309]: the “IC50 (nM)” value is reported as “+ + +”.

Consider `Cc1nn2c(-c3ccc(Cl)cc3F)c(-c3ccccc3C#N)cnc2c1C(=O)NN1CCCC1` [Example 427], for which the “IC50 (nM)” value is recorded as “+ +”.

As to `CC(C)CNC(=O)c1cnn2c(-c3ccc(C(F)(F)F)cc3)c(-c3ccccc3Cl)cnc12` [Example 287], the “IC50 (nM)” value is reported as “+ +”.

Regarding `Cc1nn2c(-c3ccc(C(F)(F)F)cc3)c(-c3ccccc3Cl)cnc2c1S(=O)(=O)N1CCCC1` [Example 238, 6-(2-chlorophenyl)-7-(4-trifluoromethylphenyl)-2-methyl-3-(1-pyrrolidinyl)sulfonylpyrazolo[1,5-a]pyrimidine], the “IC50 (nM)” value was “+ +”.

For `O=C(NC1CCCCC1)c1cnn2c(-c3ccc(Cl)cc3)c(-c3ccccc3Cl)cnc12` [Example 10], the “IC50 (nM)” value is recorded as “+ +”.
